In patent US12370167B2, “Blood-brain barrier permeability regulator and use thereof” (ZHEJIANG UNIVERSITY, priority 2019, dated 2025):

Experiments:
[1] = system: U87 MG glioma cells; experiment: Cytotoxicity on U87 MG glioma cells, tetrazolium blue colorimetric method; format: cell-based; settings: paclitaxel 0.5 μg/mL, siRNA 100 nM, 48 hours
Protocol: FIG. 1: In vitro cell inhibition rate against U87 MG glioma cells of the Angiopep-2-modified glycolipid nano-delivery system. 200 μL suspensions of well-grown U87 MG glioma cells were inoculated into a 96-well plate at a density of 5×10^3/well. After adherent growth of the cells, an Angiopep-2-modified glycolipid nano-delivery system was added, with paclitaxel at a concentration of 0.5 μg/mL and the siRNA at a concentration of 100 nM. The untreated cells were used as a blank control. The cell growth inhibition rate was measure with a tetrazolium blue colorimetric method (n=3).
U87 MG glioma cells were used as the model cell to assess the growth inhibitory effect of the Angiopep-2-modified glycolipid nano-delivery system on tumor cells with a tetrazolium blue colorimetric method. The Angiopep-2-modified glycolipid nano-delivery system was obtained according to the procedures as described in the above sections of 1 and 2. 200 μL suspensions of well-grown U87 MG cells were inoculated into a 96-well plate at a density of 5×10^3/well, and were incubated at 37° C. and 5% CO2 until the cells adhere. The Angiopep-2-modified glycolipid nano-delivery system was added, with paclitaxel at a concentration of […] and the siRNA at a concentration of 100 nM. The untreated cells were used as a blank control. […] Absorbance at 570 nm was measured with a microplate reader. […]

[2] = system: VEGF mRNA in U87 MG cells; experiment: Down-regulation of tumor cell VEGF mRNA expression, qt-PCR; format: cell-based; settings: paclitaxel 0.5 μg/mL, siRNA 100 nM, 48 hours, ΔΔCt method, n=3
Protocol: FIG. 2: In vitro down-regulation of expression of U87 MG cell VEGF mRNA by the Angiopep-2-modified glycolipid nano-delivery system. 2 mL suspensions of well-grown U87 MG glioma cells were inoculated into a 6-well plate at a density of 4×10^5/well. After adherent growth of the cells, an Angiopep-2-modified glycolipid nano-delivery system was added, with paclitaxel at a concentration of 0.5 μg/mL and the siRNA at a concentration of 100 nM. The incubation was carried out for 48 hours. An untreated group was used as the blank control. The RNA in the cells was extracted with TRIzol. The relative expression level of tumor cell VEGF mRNA was measure with qt-PCR and calculated with a ΔΔCt method (n=3).
The Angiopep-2-modified glycolipid nano-delivery system was obtained according to the procedures as described in the above sections of 1 and 2. 2.0 mL suspensions of well-grown U87 MG cells were inoculated into a 6-well plate at a density of 4×10^5/well, and were incubated at 37° C. and 5% CO2 until the cells adhere. The Angiopep-2-modified glycolipid nano-delivery system was added, with paclitaxel at a concentration of 0.5 μg/mL and the siRNA at a concentration of 100 nM. The incubation was carried out for 48 hours. The untreated cells were used as a blank control. Each of the group was repeated 3 times. The tumor cell VEGF expression level was measured with qt-PCR.

Compound | cell inhibition rate ([1]; n=3) | expression level of VEGF mRNA (relative) [2] | inhibition at 0.5 µg/mL ([1]; Homo sapiens, U-87 MG, n=3, read-out: cell inhibition rate)
siRNA: siRNA, sense strand 5′-GUCUAUCAGCGCAGCUACUTT-3′ (SEQ ID NO: 1), antisense strand 5′-AGUAGCUGCGCUGAUAGACTT-3′ (SEQ ID NO: 2) (sense GUCUAUCAGCGCAGCUACUNN; antisense AGUAGCUGCGCUGAUAGACNN; listed as RNA, chemistry not given here) | 5.5±0.5% | 92.9% | 
CC(=O)O[C@H]1C(=O)[C@@]2(C)[C@H]([C@H](OC(=O)c3ccccc3)[C@]3(O)C[C@H](OC(=O)[C@H](O)[C@@H](NC(=O)c4ccccc4)c4ccccc4)C(C)=C1C3(C)C)[C@]1(OC(C)=O)CO[C@@H]1C[C@@H]2O [paclitaxel] |  | 78.5% | 18.7 ± 5.4%
